Test results reported in patent US10178866B2, “N-halamine containing fibrous compositions and uses thereof” (priority 2014, dated 2019).

Legend:
Staphylococcus aureus = test: disinfection at low concentration in aqueous solution; assay type: cell-based; details: 25 mg/L in aqueous solution; dependent on pH
Source text: In various embodiments provided herein, the N-halamine is 1-chloro-2,2,5,5-tetramethyl-4-imidazolidinone (“compound I”). Compound I is a stable N-halamine both in aqueous solution and in the solid state as long as it is not exposed to direct sunlight or extensive UV radiation. At ambient temperature, the hydrolysis equilibrium constant of compound I to produce its precursor 2,2,5,5-tetramethyl-4-imidazolidinone and “free chlorine” (HOCl) is lower than 10^−11. At low concentration in aqueous solution (e.g., 25 mg/L), long contact times (typically between 1-10 hours, dependent on pH) are required to obtain a 6-log reduction of Staphylococcus aureus. […] Furthermore, compound I is inexpensive and may be prepared according to the procedures described in U.S. Pat. No. 5,057,612, U.S. Pat. No. 5,126,057, or Tsao et al. (“Novel N-halamine Disinfectant Compounds,” Biotechnol. Prog., 1991; 7:60), the disclosures of all which are incorporated herein in their entirety.

[1] = tested on: Staphylococcus aureus ATCC 6538; test: sandwich test, wet wipes; assay type: cell-based; details: contact time 1 min, inoculum 6.35
Method: (§1) In the first test, CVS brand commercial wet wipes were first dried at 45° C. for 1 hour before impregnation with solutions of compound I. Different concentrations (wt %) of compound I were prepared in ethyl alcohol, and the wipes were soaked in the solutions for 5 minutes. After soaking in the solutions, each wipe was mounted between two filter papers, and a weight of 290 grams was placed uniformly over the stack. At the end of a 30 second period, the wet wipes were placed in closed vials to prevent further loss of solvent.
(§2) For antibacterial testing, CVS brand commercial wipes were used as received as controls and wipes impregnated with compound I at a concentration of 1.0 wt % in ethyl alcohol were prepared as described above. […] After the plates were incubated at 37° C. for 24 hours, viable bacterial colonies were counted for the biocidal efficacy analysis.

[2] = tested on: Escherichia coli O157:H7 ATCC 43895; test: sandwich test, wet wipes; assay type: cell-based; details: contact time 1 min, inoculum 6.50
Method: as §1, §2

[3] = hydrolysis equilibrium / dissociation of compound I to free chlorine; assay type: physicochemical
[4] = storage (shelf-life) stability of oxidative chlorine on impregnated fabrics, iodometric/thiosulfate titration; assay type: physicochemical; details: for Chlorine loading, dark storage / Chlorine loading, fluorescent light: 22 g/m^2 fabric, 22° C.
Method: A modified iodometric/thiosulfate titration procedure was used to determine the active chlorine content on the fabrics impregnated with compound I (see, for example, Worley et al., “Novel N-halamine Siloxane Monomers and Polymers for Preparing Biocidal Coatings,” Surf Coat. Int., Part B, 2005; 88:93, herein incorporated by reference in its entirety). Cl^+% was calculated by the equation given below, where Cl^+% is the weight percent of the oxidative chlorine, N and V are
[formula] the normality (equiv/L) and volume (L) of the Na2S2O3 (titrant), respectively, and W is the weight of the polypropylene fabric in grams.
Storage or shelf-life stability of the impregnated 22 g/m^2 fabrics was evaluated in the instant example. Fabric samples were stored in a cabinet (e.g., a dark environment) without exposure to fluorescent light and on the laboratory bench (e.g., under fluorescent light) at room temperature. The stability of the chlorine content over time was measured for 24 weeks. The stabilities of the fabrics impregnated with compound I with a basis weight of 22 g/m^2 were determined at 22° C. by measuring the amount of remaining chlorine on the fabrics by using the standard iodometric/thiosulfate titration procedure.

CC1(C)NC(=O)C(C)(C)N1Cl [Compound I, 1-chloro-2,2,5,5-tetramethyl-4-imidazolidinone]
contact time required to obtain a 6-log reduction (Staphylococcus aureus): 1-10 hours
Bacterial Reduction (logs) S. aureus [1]: 6.35 logs
Bacterial Reduction (logs) E. coli O157:H7 [2]: 6.5 logs
dissociation constant (chlorine release) [3]: lower than 10^−11
hydrolysis equilibrium constant to produce 2,2,5,5-tetramethyl-4-imidazolidinone and free chlorine (HOCl) ([3]; ambient temperature): lower than 10^−11
Chlorine loading, dark storage ([4]; 2 weeks): 0.37 wt % Cl^+
Chlorine loading, fluorescent light ([4]; 2 weeks): 0.05 wt % Cl^+
Chlorine loading, dark storage ([4]; 3 weeks): 0.40 wt % Cl^+
Chlorine loading, fluorescent light ([4]; 3 weeks): 0 wt % Cl^+
Chlorine loading, dark storage ([4]; 5 weeks): 0.37 wt % Cl^+
Chlorine loading, fluorescent light ([4]; 5 weeks): 0 wt % Cl^+
Chlorine loading, dark storage ([4]; 8 weeks): 0.40 wt % Cl^+
Chlorine loading, fluorescent light ([4]; 8 weeks): 0 wt % Cl^+
Chlorine loading, dark storage ([4]; 12 weeks): 0.42 wt % Cl^+
Chlorine loading, fluorescent light ([4]; 12 weeks): 0 wt % Cl^+
Chlorine loading, dark storage ([4]; 24 weeks): 0.41 wt % Cl^+
Chlorine loading, fluorescent light ([4]; 24 weeks): 0 wt % Cl^+
Chlorine loading, dark storage ([4]; Initial): 0.36 wt % Cl^+
Chlorine loading, fluorescent light ([4]; Initial): 0.40 wt % Cl^+
chlorine loss on storage ([4]; fabrics exposed to fluorescent light, after 3 weeks of exposure): the remaining chlorine was lost
chlorine loss on storage ([4]; fabrics exposed to fluorescent light, within a 2 week time period): Almost all of the initial chlorine loading was lost
chlorine loss on storage ([4]; fabrics stored in dark environmental conditions, 6 month time period): no significant chlorine loss
